According to US8076287B2, “Cyclic hexadepsipeptides, processes for their production and their use as pharmaceuticals” (priority 2006, dated 2011):
Values after ≈ are worked out from the molar mass of the structure shown. Like-named read-outs stand apart in the source and are kept apart here.

Legend:
Sheep red blood cells = experiment: In vitro toxicity: hemolytic activity; format: cell-based; details: 2 hrs at 37° C., prepared in DMSO
Procedure: In vitro toxicity: Sheep red blood cells were exposed to Compound 1 for 2 hrs at 37° C. at concentrations ranging from 2 to 64 μg/mL. Hemolytic activity was determined by monitoring the amount of hemoglobin released spectrophotometrically.

[1] = system: S. epidermidis ATCC ™ 12228; experiment: MIC broth dilution, antibacterial activity; format: cell-based; details: Staphylococcus epidermidis, ATCC12228, MH medium, 35° C., 16 to 20 hours
C. perfringens HER1390 = experiment: microbe, parasite or virus in culture; format: cell-based; details: Clostridium perfringens
[2] = system: S. aureus MRS3 ATCC ™ 700699 (MRSA-hVISA); experiment: MIC broth dilution, antibacterial activity; format: cell-based; details: Staphylococcus aureus, MH medium, 35° C., 16 to 20 hours
[3] = system: Enterococcus faecalis ATCC ™ 29212 (VSE); experiment: MIC broth dilution, antibacterial activity; format: cell-based; details: ATCC29212, BHI+ medium
[4] = system: human MX-1 breast carcinoma xenograft; experiment: In vivo efficacy in human breast cancer xenograft model; set-up: species or system Harlan female athymic nude mice
Procedure: The antitumor activity of Compound 1 was tested in vivo in a human MX-1 breast carcinoma model in mice, formulated in 10% ethanol, 7.5% ethanolic polysorbate 80 (1 g/mL in ethanol), and 82.5% saline. Harlan female athymic nude mice (12 weeks of age on Day 1 (D1)) were used for this study. Human MX-1 carcinoma was maintained in athymic nude mice by serial engraftment. A tumor fragment (1 mm^3) was implanted subcutaneously into the right flank of each test mouse. Tumors were monitored twice weekly and then daily as their mean volume approached 80-120 mm^3.
On D1, animals were sorted into treatment groups 1 to 4 (groups 1 to 3: 9 mice; group 4:10 mice), with tumor sizes of 63-144 mm^3 and group mean tumor sizes of about 99 mm^3. Tumor volumes were calculated as (width^2×length) divided by 2. Tumor weight was estimated with the assumption that 1 mg is equivalent to 1 mm^3 of tumor volume.
Starting on Day 1, each group was treated with dosing volumes of 0.2 mL/20-g mouse in Groups 1 and 2, and 0.1 mL/20-g mouse for Groups 3 and 4, scaled to the body weight of each animal, and according to the following protocol:
Tumor measurements were taken twice weekly using calipers and were converted to tumor weight. Tumor weight was estimated with the assumption that 1 mg is equivalent to 1 mm^3 of tumor volume (tumor volume was determined as above). Body weights were also recorded daily for Day 1 to 5, and then twice weekly.
Each animal was euthanized when its neoplasm reached the predetermined endpoint size (1,500 mm^3). The “time to endpoint” (TTE) for each mouse was calculated by the following equation:
[formula] where “TTE” is expressed in days, “endpoint volume” is in mm^3, “b” is the intercept, and “m” is the slope of the line obtained by linear regression of a log-transformed tumor growth data set. The data set comprised the first observation that exceeded the study endpoint volume and the three consecutive observations that immediately preceded the attainment of the endpoint volume.
Treatment efficacy was determined from “tumor growth delay” (TGD), which is defined as the increase in “T” the median TTE for a treatment group compared to “C” the median for control group 1: TGD=T−C, expressed in days, or as a percentage of the median TTE of the control group (% TGD=(TGD/C)×100).
The “percentage of tumor growth inhibition” (TGI) is calculated as:
[formula] wherein MTVtreated and MTVvehicle are respectively the “median tumor volume” for the animals treated with Compound 1 and animals receiving the vehicle, on day 18 and day 0. Two-tailed statistical analyses were done using GraphPad Prism™ software.
The “MTV(n)” is defined as the median tumor volume on Day 53 in the number of animals remaining, n, whose tumors have not attained endpoint volume.

SF-268 (CNS) = experiment: In vitro cytotoxic activity (propidium iodide GI50); format: cell-based; details: Homo sapiens, 96 hrs
[5] = system: Candida albicans ATCC™10231; experiment: Antifungal activity, NCCLS M27-A broth dilution; format: cell-based; details: ATCC10231, after 48 hours, RPMI 1640
Procedure: Testing of antifungal activity was performed according to NCCLS method (NCCLS. Reference Method for Broth Dilution Antifungal Susceptibility Testing of Yeasts; Approved Standard. NCCLS document M27-A (ISBN 1-56238-328-0). NCCLS, 940 West Valley Road, Suite 1400, Wayne, Pa. 19087-1898 USA). Compound 1 was prepared as 100× stock solutions in DMSO, with concentrations ranging from 3.2 mg/mL to 0.003 mg/mL (a two-fold dilution series over 11 points). An aliquot of each 100× stock solution was diluted 50-fold in test medium described below to give a set of eleven (11) 2× solutions. 50 μL of each of the eleven 2× solutions was aliquoted into the corresponding well of a 12-well row, with the final well reserved for medium alone control. Inoculum density for the Candida albicans ATCC™10231 indicator strain was adjusted to OD600=0.1 in 5 mL 0.85% saline, then further diluted 1/1000 in RPMI 1640 medium. 50 μL of the final dilution (in test medium) of each indicator strain was added to each well of a 12-well row. This brings the final dilution of the test article or control compound in solution to 1×. The final inoculum was approximately 5×10^4 CFU/ml.

[6] = system: Enterococcus faecalis ATCC ™ 51299 (VRE); experiment: MIC broth dilution, antibacterial activity; format: cell-based; details: BHI+ medium
[7] = system: S. aureus ATCC ™ 6538P (MSSA); experiment: MIC broth dilution, antibacterial activity; format: cell-based; details: Staphylococcus aureus, MH medium, 35° C., 16 to 20 hours
M. Luteus ATCC ™ 9341 = experiment: MIC broth dilution, antibacterial activity; format: cell-based; details: Micrococcus luteus, ATCC9341, MH medium
[8] = system: HT-29 (colorectal carcinoma); experiment: In vitro cytotoxic activity (propidium iodide GI50); format: cell-based; details: Homo sapiens, 96 hrs
[9] = In vivo acute toxicity (MTD); set-up: species or system CD-1 nu/nu mice; details: CD-1 nu/nu, mouse, saline with 10% EtOH and 7.5% polysorbate 80, read-out: maximum tolerated dose (MTD)
Procedure: In vivo toxicity: The acute toxicity in CD-1 nu/nu mice of Compound 1 was determined in a saline solution comprising 10% EtOH and 7.5% polysorbate 80. When given i.p., the maximum tolerated dose (MTD) was ≧5 mg/kg. The MTD was 2.5 mg/kg when Compound 1 was administered i.v.

C. difficile ATCC ™ 9689 = experiment: microbe, parasite or virus in culture; format: cell-based, Clostridium difficile; details: Clostridioides difficile, ATCC9689
B. subtilis ATCC ™ 23857 = experiment: MIC broth dilution, antibacterial activity; format: cell-based; details: Bacillus subtilis, ATCC23857, BHI+ medium
[10] = system: S. pneumoniae LSPQ 3412 (Penicillin sensitive); experiment: MIC broth dilution, antibacterial activity; format: cell-based; details: Streptococcus pneumoniae, MH + 2% lysed horse blood
[11] = system: MDA-MB-231 (mammary gland adenocarcinoma); experiment: In vitro cytotoxic activity (propidium iodide GI50); format: cell-based; details: Homo sapiens, 96 hrs
[12] = system: HUVEC (human umbilical vein endothelial cells); experiment: as above; format: cell-based; details: 72 hours
[13] = system: S. pneumoniae LSPQ 3349 (Penicillin resistant); experiment: MIC broth dilution, antibacterial activity; format: cell-based; details: Streptococcus pneumoniae, MH + 2% lysed horse blood
C. diphtheriae HER1356 = experiment: MIC broth dilution, antibacterial activity; format: cell-based; details: Corynebacterium diphtheriae; C. diphtheriae HER1356 (strain C7); MH medium
[14] = system: PC-3 (prostate adenocarcinoma); experiment: In vitro cytotoxic activity (propidium iodide GI50); format: cell-based; details: 96 hrs

**Q.** Which results are given for `CCC1OC(O)(C(C)(O)C(=O)NC2C(=O)N3NCCCC3C(=O)N(O)CC(=O)N3NCCCC3C(=O)N3CCC(C)(O)C3C(=O)N(O)C(C(C)C)C(=O)OC2C(C)C)CCC1CC(C)C` (centres unmarked) [Compound 1]?
**A.** hemolytic activity (concentration) (Sheep red blood cells): 12.8 µM; hemolytic activity (concentration) (Sheep red blood cells; 2 to 64 μg/mL tested): 11.8 µg/mL; MIC [1]: 0.094 µg/mL (≈ 0.102 µM); MIC (C. perfringens HER1390): < 0.008 µg/mL; MIC [2]: 0.5 µg/mL (≈ 0.54 µM); MIC [3]: 0.5 µg/mL (≈ 0.54 µM); percentage of tumor growth inhibition (TGI) ([4]; 1 mg/kg i.p., median tumor volume vs vehicle, day 18): 51.6%; MTV(3), median tumor volume on Day 53 in animals remaining ([4]; 1 mg/kg i.p., n=3 animals not at endpoint volume): 6 mm^3; body weight loss ([4]; 1 mg/kg i.p., on Day 8, mean body weight): 13%; tumor growth delay (TGD) ([4]; 1 mg/kg i.p., when compared with vehicle): 82%; body weight loss during q4d dosing ([4]; period Compound 1 was given once every four days): no severe body weight loss; GI50 (SF-268 (CNS)): 25 nM; MIC [5]: 8 µg/mL (≈ 8.65 µM); MIC [6]: 1 µg/mL (≈ 1.08 µM); MIC [7]: 0.031 µg/mL (≈ 0.0335 µM); MIC (M. Luteus ATCC ™ 9341): 0.063 µg/mL (≈ 0.0681 µM); GI50 [8]: 37 nM; MTD ([9]; ip): ≥ 5 mg/kg; MTD ([9]; iv): 2.5 mg/kg; MIC (C. difficile ATCC ™ 9689): < 0.008 µg/mL; MIC (B. subtilis ATCC ™ 23857): 0.004 µg/mL (≈ 0.00432 µM); MIC [10]: 0.156 µg/mL; GI50 [11]: 28 nM; GI50 [12]: 19 nM; MIC [13]: 0.031 µg/mL; MIC (C. diphtheriae HER1356): < 0.008 µg/mL; GI50 [14]: 66 nM

**Q.** With `COc1cccc2c1C(=O)c1c(O)c3c(c(O)c1C2=O)C[C@@](O)(C(C)=O)C[C@@H]3O[C@H]1C[C@H](N)[C@H](O)[C@H](C)O1` [Daunorubicin, reference compound] as the compound, how does the GI50 (SF-268 (CNS)) read?
**A.** 19 nM

**Q.** What about the GI50 [8] of the same compound?
**A.** 20 nM

**Q.** What about the GI50 [11] of the same compound?
**A.** 9 nM

**Q.** And the GI50 [14]?
**A.** 11 nM

**Q.** Which MIC (C. perfringens HER1390) does the source give for `CN[C@H](CC(C)C)C(=O)N[C@H]1C(=O)N[C@@H](CC(N)=O)C(=O)N[C@H]2C(=O)N[C@H]3C(=O)N[C@H](C(=O)N[C@H](C(=O)O)c4cc(O)cc(O)c4-c4cc3ccc4O)[C@H](O)c3ccc(c(Cl)c3)Oc3cc2cc(c3O[C@@H]2O[C@H](CO)[C@@H](O)[C@H](O)[C@H]2O[C@H]2C[C@](C)(N)[C@H](O)[C@H](C)O2)Oc2ccc(cc2Cl)[C@H]1O` [Vancomycin, reference compound] here?
**A.** 0.5 µg/mL (≈ 0.345 µM)

**Q.** And the MIC (M. Luteus ATCC ™ 9341)?
**A.** 2 µg/mL (≈ 1.38 µM)

**Q.** What about the MIC (C. difficile ATCC ™ 9689) of the same compound?
**A.** 0.25 µg/mL (≈ 0.173 µM)

**Q.** And the MIC (B. subtilis ATCC ™ 23857)?
**A.** 0.25 µg/mL (≈ 0.173 µM)

**Q.** And the MIC [10]?
**A.** 0.25 µg/mL

**Q.** And the MIC [13]?
**A.** 0.5 µg/mL

**Q.** And the MIC (C. diphtheriae HER1356)?
**A.** 0.5 µg/mL (≈ 0.345 µM)
